Measured values as given in US20250161216A1, “CATIONIC LIPID ANALOGUES, COMPOSITIONS AND USES THEREOF” (GUANGZHOU LIDE BIOMEDICINE TECHNOLOGY CO., LTD., priority 2022, published 2025).

System: C57BL/6 mice
Experiment: In vivo expression level of Luciferase-mRNA delivered by intravenous injection (bioluminescence imaging)
Details: mRNA-loaded nanoparticles, intravenous (tail vein), 5 μg Luciferase-mRNA, 6 hours
Description: Luciferase-mRNA was used as an mRNA model; and the cationic lipid analogues of Examples 1-5 were used to prepare drug-loaded nanoparticles according to the method of Example 6.
200 μL of nanoparticles containing 5 μg Luciferase-mRNA or the drug-loaded nanoparticles prepared above were injected into tail veins of 6-8 week-old C57BL/6 mice, and 200 μL of 1×PBS solution containing 3 mg D-Luciferin potassium salt was intraperitoneally injected into the mice 6 hours later. After waiting for 10 minutes, an in vivo expression level of the mRNA was evaluated by bioluminescence imaging.

CCCCC/C=C\C/C=C\CCCCCCCC(=O)N(CCC)C(C(=O)NCCN(C)CCNC(=O)C(C(CC)CCCC)N(CCC)C(=O)CCCCCCC/C=C\C/C=C\CCCCC)C(CC)CCCC (centres unmarked) [A4I4R21C18-2]
Fluorescence intensity of spleen (compounds of Example 2): 1.91E+04

CCCCCCCCCCCCCCCCCC(=O)N(CCC)C(C(=O)NCCN(C)CCNC(=O)C(C(CC)CCCC)N(CCC)C(=O)CCCCCCCCCCCCCCCCC)C(CC)CCCC (centres unmarked) [A4I4R21C18]
Fluorescence intensity of spleen (compounds of Example 2): 2.09E+04

CCCCCCCC/C=C\CCCCCCCC(=O)N(CCOC)C(C(=O)NCCN(C)CCNC(=O)C(C(CC)CCCC)N(CCOC)C(=O)CCCCCCC/C=C\CCCCCCCC)C(CC)CCCC (centres unmarked) [A4I4R23C18-1]
Fluorescence intensity of spleen (compounds of Example 2): 6.08E+04

CCCCC/C=C\C/C=C\CCCCCCCC(=O)N(CCCN(C)C)C(C(=O)NCCCCCCCCCCCCCC)C(CC)CCCC (centres unmarked) [A4I10R2C18-2]
Fluorescence intensity of liver (compounds of Example 1): 1.15E+06

CCCCC/C=C\C/C=C\CCCCCCCC(=O)N(CCCN(C)C)C(C(=O)NCCCCCCCCCCCCCC)C(CC)CCCC (centres unmarked) [A4I14R2C18-2]
Fluorescence intensity of liver (compounds of Example 1): 9.02E+05

CC/C=C\C/C=C\C/C=C\CCCCCCCC(=O)N(CCN(C)C)C(C(=O)NCCCCCCCCCCCCCCCCCC)C(CC)CCCC (centres unmarked) [A4I18R1C18-3]
Fluorescence intensity of liver (compounds of Example 1): 3.88E+06

CCCCCCCCCCCCCCCCCCNC(=O)C(C(CC)CCCC)N(CCN(C)C)C(=O)CCCCCCCCCCCCCCCCC (centres unmarked) [A4I18R1C18]
Fluorescence intensity of liver (compounds of Example 1): 3.65E+05

CCCCCCCCCCCCC#CC#CCCCCCCCCC(=O)N(CCN(C)C)C(C(=O)NCCCCCCCCCCCCCCCCCC)C(CC)CCCC (centres unmarked) [A4I18R1C23]
Fluorescence intensity of liver (compounds of Example 1): 1.78E+06

CC/C=C\C/C=C\C/C=C\CCCCCCCC(=O)N(CCCN(C)C)C(C(=O)NCCCCCCCCCCCCCCCCCC)C(CC)CCCC (centres unmarked) [A4I18R2C18-3]
Bioluminescence intensity (compounds of Example 1): 1.36E+07

CCCCCCCCCCCCC#CC#CCCCCCCCCC(=O)N(CCCN(C)C)C(C(=O)NCCCCCCCCCCCCCCCCCC)C(CC)CCCC (centres unmarked) [A4I18R2C23]
Bioluminescence intensity (compounds of Example 1): 1.40E+07

CCCCCCCCCCCCC#CC#CCCCCCCCCC(=O)N(CCCN(CC)CC)C(C(=O)NCCCCCCCCCCCCCCCCCC)C(CC)CCCC (centres unmarked) [A4I18R3C18-3]
Bioluminescence intensity (compounds of Example 1): 1.32E+07

CCCCCCCCCCCCCCCCCCNC(=O)C(C(CC)CCCC)N(CCCN(CC)CC)C(=O)CCCCCCCCCCCCCCCCC (centres unmarked) [A4I18R3C18]
Fluorescence intensity of liver (compounds of Example 1): 1.69E+06

CCCCCCCCCCCCC#CC#CCCCCCCCCC(=O)N(CCCN(CC)CC)C(C(=O)NCCCCCCCCCCCCCCCCCC)C(CC)CCCC (centres unmarked) [A4I18R3C23]
Fluorescence intensity of liver (compounds of Example 1): 7.81E+06

CCCCC/C=C\C/C=C\CCCCCCCC(=O)N(CCN1CCOCC1)C(C(=O)NCCCCCCCCCCCCCCCCCC)C(CC)CCCC (centres unmarked) [A4I18R4C18-2]
Fluorescence intensity of liver (compounds of Example 1): 1.25E+04

CCCCC/C=C\C/C=C\CCCCCCCC(=O)N(CCN(C)CC)C(C(=O)NCCCCCCCCCCCCCCCCCC)C(CC)CCCC (centres unmarked) [A4I18R6C18-2]
Fluorescence intensity of liver (compounds of Example 1): 3.64E+04

CCCCC/C=C\C/C=C\CCCCCCCC(=O)N(CCCN(C)c1ccccc1)C(CCCCC)C(=O)NCCCCCCCCCCCCCCCCCC (centres unmarked) [A4I18R7C18-2]
Fluorescence intensity of liver (compounds of Example 1): 5.22E+03

CCCCC/C=C\C/C=C\CCCCCCCC(=O)N(CCN(CC)CC)C(C(=O)NCCCCCCCCCCCCCCCCCC)C(CC)CCCC (centres unmarked) [A4I18R8C18-2]
Fluorescence intensity of liver (compounds of Example 1): 2.48E+04

CCCCC/C=C\C/C=C\CCCCCCCC(=O)N(CCCN1CCN(C)CC1)C(CCCCC)C(=O)NCCCCCCCCCCCCCCCCCC (centres unmarked) [A4I18R9C18-2]
Fluorescence intensity of liver (compounds of Example 1): 2.55E+03

CCCCC/C=C\C/C=C\CCCCCCCC(=O)N(CCN1CCCC1)C(CCCCC)C(=O)NCCCCCCCCCCCCCCCCCC (centres unmarked) [A4I18R10C18-2]
Fluorescence intensity of liver (compounds of Example 1): 7.89E+05

CCCCC/C=C\C/C=C\CCCCCCCC(=O)N(CCC1CCCN1C)C(CCCCC)C(=O)NCCCCCCCCCCCCCCCCCC (centres unmarked) [A4I18R11C18-2]
Fluorescence intensity of liver (compounds of Example 1): 1.02E+06

CCCCC/C=C\C/C=C\CCCCCCCC(=O)N(CCCN(C)C)C(C(=O)NCCCCCCCCCCCCCCCCCC)C(C)CCC=C(C)C (centres unmarked) [A5I18R2C18-2]
Fluorescence intensity of liver (compounds of Example 1): 8.72E+05

CCCCCCCC/C=C\CCCCCCCC(=O)N(CCCN(C)C)C(C(=O)NCCN(C)CCNC(=O)C(C1CC1)N(CCCN(C)C)C(=O)CCCCCCC/C=C\CCCCCCCC)C1CC1 (centres unmarked) [A21I4R2C18-1]
Bioluminescence intensity (compounds of Example 2): 8.38E+02

CCCCC/C=C\C/C=C\CCCCCCCC(=O)N(CCCN(C)C)C(C(=O)NCCN(C)CCNC(=O)C(C1CC1)N(CCCN(C)C)C(=O)CCCCCCC/C=C\C/C=C\CCCCC)C1CC1 (centres unmarked) [A21I4R2C18-2]
Fluorescence intensity of spleen (compounds of Example 2): 1.83E+03

CCCCCCCCCCCCCCCCCC(=O)N(CCCN(C)C)C(C(=O)NCCN(C)CCNC(=O)C(C1CC1)N(CCCN(C)C)C(=O)CCCCCCCCCCCCCCCCC)C1CC1 (centres unmarked) [A21I4R2C18]
Fluorescence intensity of spleen (compounds of Example 2): 1.04E+03

CCCCCCCC/C=C\CCCCCCCC(=O)N(CCN1CCCCCC1)C(C(=O)NCCN(C)CCNC(=O)C(C1CC1)N(CCN1CCCCCC1)C(=O)CCCCCCC/C=C\CCCCCCCC)C1CC1 (centres unmarked) [A21I4R13C18-1]
Bioluminescence intensity (compounds of Example 2): 9.59E+02

CCCCC/C=C\C/C=C\CCCCCCCC(=O)N(CCN1CCCCCC1)C(C(=O)NCCN(C)CCNC(=O)C(C1CC1)N(CCN1CCCCCC1)C(=O)CCCCCCC/C=C\C/C=C\CCCCC)C1CC1 (centres unmarked) [A21I4R13C18-2]
Bioluminescence intensity (compounds of Example 2): 8.67E+02

CCCCCCCCCCCCCCCCCC(=O)N(CCN1CCCCCC1)C(C(=O)NCCN(C)CCNC(=O)C(C1CC1)N(CCN1CCCCCC1)C(=O)CCCCCCCCCCCCCCCCC)C1CC1 (centres unmarked) [A21I4R13C18]
Fluorescence intensity of spleen (compounds of Example 2): 1.12E+03

CCCCCCCC/C=C\CCCCCCCC(=O)N(CCC)C(C(=O)NCCN(C)CCNC(=O)C(C1CC1)N(CCC)C(=O)CCCCCCC/C=C\CCCCCCCC)C1CC1 (centres unmarked) [A21I4R21C18-1]
Fluorescence intensity of spleen (compounds of Example 2): 8.50E+03

CCCCC/C=C\C/C=C\CCCCCCCC(=O)N(CCC)C(C(=O)NCCN(C)CCNC(=O)C(C1CC1)N(CCC)C(=O)CCCCCCC/C=C\C/C=C\CCCCC)C1CC1 (centres unmarked) [A21I4R21C18-2]
Fluorescence intensity of spleen (compounds of Example 2): 1.39E+03

CCCCCCCCCCCCCCCCCC(=O)N(CCC)C(C(=O)NCCN(C)CCNC(=O)C(C1CC1)N(CCC)C(=O)CCCCCCCCCCCCCCCCC)C1CC1 (centres unmarked) [A21I4R21C18]
Fluorescence intensity of spleen (compounds of Example 2): 5.31E+03

CCCCCCCC/C=C\CCCCCCCC(=O)N(CCO)C(C(=O)NCCN(C)CCNC(=O)C(C1CC1)N(CCO)C(=O)CCCCCCC/C=C\CCCCCCCC)C1CC1 (centres unmarked) [A21I4R22C18-1]
Fluorescence intensity of spleen (compounds of Example 2): 1.76E+04

CCCCC/C=C\C/C=C\CCCCCCCC(=O)N(CCO)C(C(=O)NCCN(C)CCNC(=O)C(C1CC1)N(CCO)C(=O)CCCCCCC/C=C\C/C=C\CCCCC)C1CC1 (centres unmarked) [A21I4R22C18-2]
Fluorescence intensity of spleen (compounds of Example 2): 1.26E+03

CCCCCCCC/C=C\CCCCCCCC(=O)N(CCOC)C(C(=O)NCCN(C)CCNC(=O)C(C1CC1)N(CCOC)C(=O)CCCCCCC/C=C\CCCCCCCC)C1CC1 (centres unmarked) [A21I4R23C18-1]
Fluorescence intensity of spleen (compounds of Example 2): 2.28E+04

CCCCC/C=C\C/C=C\CCCCCCCC(=O)N(CCOC)C(C(=O)NCCN(C)CCNC(=O)C(C1CC1)N(CCOC)C(=O)CCCCCCC/C=C\C/C=C\CCCCC)C1CC1 (centres unmarked) [A21I4R23C18-2]
Fluorescence intensity of spleen (compounds of Example 2): 6.97E+04

CCCCCCCCCCCCCCCCCC(=O)N(CCOC)C(C(=O)NCCN(C)CCNC(=O)C(C1CC1)N(CCOC)C(=O)CCCCCCCCCCCCCCCCC)C1CC1 (centres unmarked) [A21I4R23C18]
Fluorescence intensity of spleen (compounds of Example 2): 2.65E+04

CCCCCCCC/C=C\CCCCCCCC(=O)N(CCCN(C)C)C(C(=O)NCCN(C)CCNC(=O)C(C1CCCCC1)N(CCCN(C)C)C(=O)CCCCCCC/C=C\CCCCCCCC)C1CCCCC1 (centres unmarked) [A23I4R2C18-1]
Fluorescence intensity of spleen (compounds of Example 2): 1.78E+03

CCCCC/C=C\C/C=C\CCCCCCCC(=O)N(CCCN(C)C)C(C(=O)NCCN(C)CCNC(=O)C(C1CCCCC1)N(CCCN(C)C)C(=O)CCCCCCC/C=C\C/C=C\CCCCC)C1CCCCC1 (centres unmarked) [A23I4R2C18-2]
Fluorescence intensity of spleen (compounds of Example 2): 2.18E+03

CCCCCCCCCCCCCCCCCC(=O)N(CCCN(C)C)C(C(=O)NCCN(C)CCNC(=O)C(C1CCCCC1)N(CCCN(C)C)C(=O)CCCCCCCCCCCCCCCCC)C1CCCCC1 (centres unmarked) [A23I4R2C18]
Bioluminescence intensity (compounds of Example 2): 5.71E+02

CCCCCCCC/C=C\CCCCCCCC(=O)N(CCN1CCCCCC1)C(C(=O)NCCN(C)CCNC(=O)C(C1CCCCC1)N(CCN1CCCCCC1)C(=O)CCCCCCC/C=C\CCCCCCCC)C1CCCCC1 (centres unmarked) [A23I4R13C18-1]
Bioluminescence intensity (compounds of Example 2): 6.61E+02

CCCCC/C=C\C/C=C\CCCCCCCC(=O)N(CCN1CCCCCC1)C(C(=O)NCCN(C)CCNC(=O)C(C1CCCCC1)N(CCN1CCCCCC1)C(=O)CCCCCCC/C=C\C/C=C\CCCCC)C1CCCCC1 (centres unmarked) [A23I4R13C18-2]
Fluorescence intensity of spleen (compounds of Example 2): 9.46E+03

CCCCCCCCCCCCCCCCCC(=O)N(CCN1CCCCCC1)C(C(=O)NCCN(C)CCNC(=O)C(C1CCCCC1)N(CCN1CCCCCC1)C(=O)CCCCCCCCCCCCCCCCC)C1CCCCC1 (centres unmarked) [A23I4R13C18]
Bioluminescence intensity (compounds of Example 2): 7.89E+02

CCCCCCCC/C=C\CCCCCCCC(=O)N(CCC)C(C(=O)NCCN(C)CCNC(=O)C(C1CCCCC1)N(CCC)C(=O)CCCCCCC/C=C\CCCCCCCC)C1CCCCC1 (centres unmarked) [A23I4R21C18-1]
Fluorescence intensity of spleen (compounds of Example 2): 9.63E+04

CCCCC/C=C\C/C=C\CCCCCCCC(=O)N(CCC)C(C(=O)NCCN(C)CCNC(=O)C(C1CCCCC1)N(CCC)C(=O)CCCCCCC/C=C\C/C=C\CCCCC)C1CCCCC1 (centres unmarked) [A23I4R21C18-2]
Fluorescence intensity of spleen (compounds of Example 2): 6.07E+04

CCCCCCCCCCCCCCCCCC(=O)N(CCC)C(C(=O)NCCN(C)CCNC(=O)C(C1CCCCC1)N(CCC)C(=O)CCCCCCCCCCCCCCCCC)C1CCCCC1 (centres unmarked) [A23I4R21C18]
Fluorescence intensity of spleen (compounds of Example 2): 5.43E+03

CCCCC/C=C\C/C=C\CCCCCCCC(=O)N(CCOC)C(C(=O)NCCN(C)CCNC(=O)C(C1CCCCC1)N(CCOC)C(=O)CCCCCCC/C=C\C/C=C\CCCCC)C1CCCCC1 (centres unmarked) [A23I4R23C18-2]
Fluorescence intensity of spleen (compounds of Example 2): 1.04E+05

CCCCCCCC/C=C\CCCCCCCC(=O)N(CCN(C)C)C(C(=O)NCCCCCCCCCCCCCCCCCC)C1CCCCC1 (centres unmarked) [A23I18R1C18-1]
Fluorescence intensity of liver (compounds of Example 1): 5.74E+06

CCCCC/C=C\C/C=C\CCCCCCCC(=O)N(CCN(C)C)C(C(=O)NCCCCCCCCCCCCCCCCCC)C1CCCCC1 (centres unmarked) [A23I18R1C18-2]
Fluorescence intensity of liver (compounds of Example 1): 8.25E+06
